Test [1] has as its system HepG2. Put plainly: Induction of apoptosis in human HepG2 cells assessed as early apoptotic cells at 0.5 uM after 48 hrs by annexin V-FITC/propidium iodide staining-based flow cytometry analysis (reference value: 0.98%). Format: functional. (In general: In flow cytometry, cells or beads pass a laser one at a time.)
In test [2] the test system is HepG2. As to the kind of experiment: Induction of apoptosis in human HepG2 cells assessed as late apoptotic cells at 0.5 uM after 48 hrs by annexin V-FITC/propidium iodide staining-based flow cytometry analysis (reference value: 0.26%). Format: functional.
Test [3] concerns HepG2. Put plainly: Induction of apoptosis in human HepG2 cells assessed as early apoptotic cells at 2.5 uM after 48 hrs by annexin V-FITC/propidium iodide staining-based flow cytometry analysis (reference value: 0.98%). Format: functional.
The subject of test [4] is HepG2. Put plainly: Induction of apoptosis in human HepG2 cells assessed as […] deformation at 0.5 to 2.5 uM after 48 hrs by inverted phase contrast microscopic analysis. Format: functional, cell-based.
Test [5] has as its system HepG2. As to the kind of experiment: Induction of apoptosis in human HepG2 cells assessed as fragmented nuclei at 0.5 to 2.5 uM after 48 hrs by DAPI staining-based fluorescence microscopic analysis. Format: functional, cell-based.
Test [6] deals with HepG2. As to the kind of experiment: Cell cycle arrest in human HepG2 cells assessed as accumulation at G0/G1 phase at 0.5 uM after 24 hrs by propidium iodide staining based flow cytometric analysis (reference value: 49.93%). Format: functional.
In test [7] the test system is HepG2. Put plainly: Cell cycle arrest in human HepG2 cells assessed as accumulation at G0/G1 phase at 1 uM after 24 hrs by propidium iodide staining based flow cytometric analysis (reference value: 49.93%). Format: functional.
Test [8] relates to HepG2. As to the kind of experiment: Cell cycle arrest in human HepG2 cells assessed as accumulation at S phase at 1 uM after 24 hrs by propidium iodide staining based flow cytometric analysis (reference value: 7.57%). Format: functional.
For test [9], the system named is HepG2. Put plainly: Cell cycle arrest in human HepG2 cells assessed as accumulation at G2/M phase at 1 uM after 24 hrs by propidium iodide staining based flow cytometric analysis (reference value: 28.79%). Format: functional.
Test [10] has as its system HepG2. Put plainly: Anticlonogenic activity against human HepG2 cells incubated for 24 hrs followed by fresh media replacement and measured after 12 days by crystal violet staining based assay. Format: functional, cell-based.
In test [11] the test system is HepG2. As to the kind of experiment: Induction of apoptosis in human HepG2 cells assessed as mitochondrial depolarized cells level at 0.5 uM after 48 hrs by JC-1 staining based flow cytometric method (reference value: […]). Format: functional.
Test [12] deals with HepG2. As to the kind of experiment: Induction of apoptosis in human HepG2 cells assessed as mitochondrial polarized cells level at 1 uM after 48 hrs by JC-1 staining based flow cytometric method (reference value: 93.02%). Format: functional.
Test [13] relates to HepG2. As to the kind of experiment: Induction of apoptosis in human HepG2 cells assessed as increase in loss of mitochondrial membrane potential after 48 hrs by JC-1 staining based flow cytometric method. Format: functional, cell-based.

SMILES strings stand for the structures. Active and inactive are the calls of the source. The rule behind the calls is not given here.

This note sets out measurements from ChEMBL document CHEMBL4325881, “Facile synthesis of 2-aryl 5-hydroxy benzo[d]oxazoles and their in vitro anti-proliferative effects on various cancer cell lines” (Bioorg Med Chem Lett, 2018).

As to `O=Cc1c(O)ccc2oc(-c3cccc(Cl)c3)nc12`, the Activity in the test with HepG2 [1] came to 12.5%; with HepG2 [2], 0.75%; with HepG2 [3], 56.17%; in the test with HepG2 [6] it was 59.01%; in the test with HepG2 [7] it was 50.36%; with HepG2 [8] it was 5.53%. The Activity in the test with HepG2 [9] is 27.15%; in the test on HepG2 [10], “Dose-dependent effect”; in the test with HepG2 [11], 14.91%; with HepG2 [12], 74.54%; with HepG2 [13], “Dose-dependent effect”. Moreover, the result with HepG2 [4] and in the test with HepG2 [5] was Active.
